# Assay results: patent US8796285B2, “Pyrazolo [1,5-a]-pyrimidones derivatives and pharmaceutical compositions and uses thereof” (Hebei Medical University, priority 2009, dated 2014)
# Where two headings read alike, the source gives them in different places.
# Experiments:
# KCNQ2/3 = molecular target: T1, KCNQ2/3 (Homo sapiens, UniProt O43525+O43526); experiment: High throughput atomic absorption Rb+ efflux testing, KCNQ2/3; type: cell-based; conditions: Rb+ efflux by atomic absorption
# T1 construct: expressed in transfected cells
# [1] = molecular target: KCNQ4 potassium ion channel (Homo sapiens, UniProt P56696); experiment: High throughput atomic absorption Rb+ efflux testing, CHO cell of KCNQ4 channel; type: cell-based; conditions: for EC50: CHO cell of KCNQ4 channel
# Description: Atomic absorption Rb^+ efflux testing is a fast and safe selection method for high throughput potassium channel moderator, and is characterized in that the activity of the ion channel and the control effect of the opener are directly reflected. Rb and K have similar atomic size, and potassium ion channel is permeable to Rb^+. By testing concentration of the Rb^+ efflux, a status of the potassium channel, which is an open status or a close status, can be determined. Rb has specific absorption at 780 nm, and Rb^+ concentration can be determined by atomic absorption spectroscopy. Accordingly, analysis method of atomic absorption spectroscopy can be used to select the opener/inhibitor of potassium channel through high throughput of Rb^+ efflux.
# Stable cell transfer of CHO cell of KCNQ4 channel at log phase and inoculate in 96-well culture plate at a density of 2×10^4 unit/well. Each concentration has a triplicate-hole setting, and a control setting with solvent of corresponding concentration. Allow growth against the well-wall overnight, then discard the culture medium, add 200 μl loading buffer which contains RbCl, and culture in 5% CO2 at 37° C. for 3 hours. Then remove the loading buffer and wash with wash buffer for 3 times. Screen for the KCNQ opener, dilute testing compound with depolarization buffer, add 200 μl of the above solvent into the cell and allow reaction for 10 minutes. Incubate for 10 minutes, then carefully draw 200 μl supernatant to another 96-well culture plate, use ICR8000 atomic absorption spectrometry to determine the Rb^+ atomic absorption at 780 nm. Based on the equation Fsupern=(Rb_supern/cpd/Rb_supern/d)×100, calculate the corresponding rate of efflux.
# Male SD rats = experiment: Formalin-induced pain model; type: in vivo; conditions: rat
# Procedure: Pharmaceutical composition used: the compound number 42 for the testing group, no medication for the positive control group, which is a blank control model.
# Testing method: Male SD rats are randomly divided into control group, ipsilateral treatment group (treatment on the same side) and contralateral treatment group (treatment on the opposite side). After 30 minutes from administration of pharmaceutical compound, administer 20 μl of 20 g/L formalin by subcutaneous injection in foot bottom of back paw on the same side or the opposite side of pharmaceutical compound administration, an occurrence of typical lateral swinging and shaking of rat's tail is deemed as successful in preparing induced-pain model, in the next 60 minutes, observe the rat's licking and biting behavior towards the formalin's injection paw at each 5-min interval.
# [2] = Rb+ efflux by atomic absorption, read-out: KCNQ4
Structure (SMILES),EC50 (KCNQ2/3) [µM],"EC50 [1, 2] [µM]",further results
"O=c1cc(-c2cc(F)c(F)cc2F)[nH]c2c(-c3ccccc3)c(C(Cl)(Cl)Cl)nn12 [Compound 99, 3-phenyl-2-trichloromethyl-5-(2,4,5-trifluorophenyl)pyrazolo[1,5-a]pyrimidin-7(4H)-one]",54.5 ± 32.1,18.4 ± 1.34,–
O=c1cc(-c2cc(F)c(Cl)nc2Cl)[nH]c2c(-c3cccc4ccccc34)c(C(F)(F)F)nn12 [Compound 42],0.53 ± 0.28,–,"accumulated time of licking/biting back paw, first phase (Male SD rats; 0-10 min after formalin injection, treatment vs control group, p>0.05): no significant difference; accumulated time of licking/biting back paw, second phase (Male SD rats; 10-60 min after formalin, ipsilateral treatment group vs control group, p<0.05): decrease in accumulated time of licking/biting back paw; activating effect on the CHO cell of the KCNQ4 potassium ion channel ([1]; Rb+ efflux at 0.03, 0.1, 0.6, 1, 3 and 10 μM, FIG. 4): dose-dependent activating effect; EC50 ([1]; Rb+ efflux, 0.03-10 μM, FIG. 4, read-out: EC50): 0.96 ± 0.51 µM"
"O=c1cc(-c2cc(F)c(Cl)nc2Cl)[nH]c2c(-c3cccs3)c(C(Cl)(Cl)Cl)nn12 [Compound 94, 5-(2,6-dichloro-5-fluoropyrido)-3-(thiophen-2-yl)-2-trichloromethyl pyrazolo[1,5-a]pyrimidin-7(4H)-one]",0.28 ± 0.32,0.54 ± 0.23,–
O=c1cc(-c2cc(F)c(Cl)nc2Cl)[nH]c2c(-c3cccs3)c(C(F)(F)F)nn12 [Compound 60],5.32 ± 2.23,1.14 ± 0.34,–
COc1ccc(-c2c(C(F)(F)F)nn3c(=O)cc(-c4cc(F)c(Cl)nc4Cl)[nH]c23)cc1OC [Compound 23],22.1 ± 1.23,10.3 ± 0.43,–
"CCOC(=O)c1c(-c2ccc(Cl)cc2)nn2c(=O)cc(C(F)(F)F)[nH]c12 [Compound 73, ethyl 7-oxo-2-(4-chlorophenyl)-5-(trifluoromethyl)-4,7-dihydropyrazolo[1,5-a]pyrimidine-3-carboxylate]",135 ± 32.2,60.6 ± 3.28,–
O=C(Cc1ccc(C(F)(F)F)cc1)NCc1cc(=O)n2nc(C(F)(F)F)c(-c3ccccc3)c2[nH]1 [Compound 35],138 ± 9.28,44.5 ± 5.28,–
"O=c1cc(CCl)[nH]c2c(-c3cccs3)c(C(F)(F)F)nn12 [Compound 96, 5-chloromethyl-3-(thiophen-2-yl)-2-trifluoromethylpyrazolo[1,5-a]pyrimidin-7(4H)-one]",–,5.41 ± 2.29,–
O=c1cc(CN2CCNCC2)[nH]c2c(-c3cccs3)c(C(F)(F)F)nn12 [Compound 61],77.7 ± 21.3,33.3 ± 2.12,–
"O=c1cc(C(F)(F)F)[nH]c2c(-c3cccc4ccccc34)c(C(F)(F)F)nn12 [Compound 38, 2,5-bis(trifluoromethyl)-3-(naphthalen-1-yl)pyrazolo[1,5-a]pyrimidin-7(4H)-one]",9.29 ± 26.3,4.82 ± 3.45,–
"O=c1cc(C(F)(F)F)[nH]c2c(-c3c[nH]c4ccccc34)c(-c3ccc(Cl)cc3)nn12 [Compound 77, 2-(4-chlorophenyl)-3-(1H-indol-3-yl)-5-trifluoromethylpyrazolo[1,5-a]pyrimidin-7(4H)-one]",32.2 ± 9.32,82.3 ± 19.3,–
"O=c1cc(CN2CCCCC2)[nH]c2c(-c3ccccc3)c(C(F)(F)F)nn12 [Compound 25, 5-(piperidin-1-ylmethyl)-3-phenyl-2-trifluoromethylpyrazolo[1,5-a]pyrimidin-7(4H)-one]",85.3 ± 3.45,35 ± 1.21,–
"O=c1cc(CCl)[nH]c2c(-c3cccs3)c(Cl)nn12 [Compound 108, 2-chloro-3-(thiophen-2-yl)-5-chloromethylpyrazolo[1,5-a]pyrimidin-7(4H)-one]",56.8 ± 19.4,91.2 ± 33.2,–
"O=c1cc(-c2cc(F)c(Cl)nc2Cl)[nH]c2c(-c3ccc(F)cc3)c(C(F)(F)F)nn12 [Compound 18, 5-(2,6-dichloro-5-fluoropyrindin-3-yl)-3-(4-fluorophenyl)-2-(trifluoromethyl)pyrazolo[1,5-a]pyrimidin-7(4H)-one]",78.7 ± 12.3,120 ± 3.23,–
"O=c1cc(CCl)[nH]c2c(-c3cccc4ccccc34)c(C(F)(F)F)nn12 [Compound 39, 5-chloromethyl-3-(naphthalen-1-yl)-2-trifluoromethylpyrazolo[1,5-a]pyrimidin-7(4H)-one]",5.21 ± 3.21,21.7 ± 9.72,–
"O=c1cc(-c2ccc(Cl)cc2)[nH]c2c(-c3ccc(F)cc3)c(C(F)(F)F)nn12 [Compound 8, 2-trifluoromethyl-3-(4-fluorophenyl)-5-(4-chlorophenyl)-pyrazole[1,5-a]pyrimidin-7(4H)-one]",4.76 ± 1.35,24.5 ± 4.67,–
"O=c1cc(-c2cccc([N+](=O)[O-])c2)[nH]c2c(-c3ccccc3)c(C(F)(F)F)nn12 [Compound 30, 5-(3-nitrophenyl)-3-phenyl-2-trifluoromethylpyrazolo[1,5-a]pyrimidin-7(4H)-one]",1.26 ± 0.68,12.2 ± 0.82,–
O=c1cc(-c2cc(F)c(Cl)nc2Cl)[nH]c2c(-c3ccc(F)cc3)c(C(F)(F)F)nn12 [Compound 22],1.28 ± 0.12,0.15 ± 0.09,–
"COc1ccc(-c2c(C(F)(F)F)nn3c(=O)cc(C(F)(F)F)[nH]c23)cc1OC [Compound 2, 3-(3,4-dimethoxyphenyl)-2,5-bis(trifluoromethyl)pyrazolo[1,5-a]pyrimidin-7(4H)-one]",5.65 ± 3.13,12.1 ± 0.23,–
CCOC(=O)c1c(C(F)(F)F)nn2c(=O)cc(-c3ccccc3)[nH]c12 [Compound 5],100 ± 13.3,67.8 ± 2.67,–
"O=C(NCc1cc(=O)n2nc(Cl)c(-c3ccc4ccccc4c3)c2[nH]1)C(F)(F)F [Compound 116, N-((2-chloro-3-(naphthalen-2-yl)-7-oxo-4,7-dihydropyrazolo[1,5-a]pyrimidin-5-yl)methyl)-2,2,2-trifluoroacetamide]",210 ± 9.8,43.2 ± 13.7,–
"O=c1cc(-c2ccccc2)[nH]c2c(-c3ccccc3)c(C(F)(F)F)nn12 [Compound 19, 3,5-diphenyl-2-(trifluoromethyl)pyrazolo[1,5-a]pyrimidin-7(4H)-one]",40.2 ± 2.34,62.1 ± 1.12,–
"COc1ccc(-c2cc(=O)n3nc(C(F)(F)F)c(-c4cccc5ccccc45)c3[nH]2)cc1 [Compound 47, 5-(4-methoxyphenyl)-3-(naphthalen-1-yl)-2-trifluoromethylpyrazolo[1,5-a]pyrimidin-7(4H)-one]",89.2 ± 24.2,46.2 ± 2.34,–
"O=c1cc(C(F)(F)F)[nH]c2c(-c3ccccc3)c(C(F)(F)F)nn12 [Compound 20, 2,5 bis(trifluoromethyl)-3-phenylpyrazolo [1,5-a]pyrimidin-7(4H)-one]",1.28 ± 1.16,5.87 ± 2.67,–
"O=C(OCc1cc(=O)n2nc(C(F)(F)F)c(N3CCNCC3)c2[nH]1)C(F)(F)F [Compound 86, (2-trifluoromethyl-3-piperazinyl-7-oxo-4,7-dihydropyrazolo[1,5-a]pyrimidin-5-yl)methyl-2,2,2-trifluoroacetate]",98.3 ± 65.2,50.1 ± 1.34,–
